According to patent US20100015249A1, “Antitumor agent containing 6'-amidino-2'-naphthyl 4-guanidinobenzoate or salt thereof” (priority 2005, published 2010):

Tests used:
[1] = system: human pancreas cancer cell line MDAPanc-28; assay: DNA fragmentation assay (apoptosis); assay type: cell-based; settings: MDAPanc-28
Method: After adding 1000 U/ml of protease K, the sample was further incubated for 5 hours at 50° C. After extracting DNA with phenol/chloroform/isoamyl alcohol, isopropanol and ammonium acetate were added to the collected water-soluble fractions in order to collect precipitates. The precipitates were then rinsed with 70% ethanol and dissolved in Tris-EDTA buffer. Electrophoresis was performed on a 2% agarose gel and DNA bands were confirmed by using ethidium bromide. The present inventors examined the concomitant effect of FUT and TNF-α on apoptosis in cancer cells. After treatment with TNF-α for 24 hours, the human pancreas cancer cell line […]-28 was further cultured for 24 hours with various concentrations of FUT being added. Cells prepared were then subjected to an MTT assay according to the method generally known to calculate the cell survival rates. Also, DNA was extracted to perform a DNA fragmentation assay. More specifically, with regard to the MTT assay, each well was seeded with 2000 cells per 100 μl of culture medium in a 96-well microtiterplate, followed by the above mentioned treatment. […] The absorbance of the samples was measured at 570 nm by using a microplate reader. […] Two independent experiments were performed, and the average was calculated. […]

[2] = system: TNFRI; assay: TNFRI expression by Northern blot and Western blot; assay type: cell-based, human
Method: A cDNA probe for hybridization was constructed by the following method. After FUT treatment, RNA was extracted from the human pancreas cancer cell line […]-28 by using TRIZOL Reagent (Life Technologies, Inc.) 15 μg of RNA was subjected to electrophoresis on a 1% denatured formaldehyde agarose gel and transferred to a nylon membrane. RT-PCR was performed in order to construct a cDNA probe to be used for the detection of TNFRI mRNA. With this RT-PCR, primers represented by SEQ ID Nos: 5 and 6 were used. The obtained cDNA was inserted into the pCR2.1-TOPO vector. […] The obtained cDNA probe was labeled with α-^32P dCTP by using the random labeling kit (Roche) and used for hybridization. The expression of TNFRI mRNA was confirmed by Northern blot method with the above mentioned probe according to the method generally known. […] Also, TNFRI expression on the cell surface was detected by Western blot method. More specifically, the experiment was performed by the method similar to the method described in Example 2. Mouse monoclonal anti-TNFR1 (H-5; Santa Cruz Biotechnology) was used for detection.

[3] = system: MMP-9; assay: Western blot of MMP-9 expression; assay type: cell-based, human; settings: MDAPanc-28 cytoplasmic fraction, 0 or 80 μg/ml FUT
Method: Cytoplasmic fraction was prepared from the human pancreas cancer cell line […]-28 treated with either 0 μg/ml or 80 μg/ml of FUT. Western blot was performed for the obtained cytoplasmic proteins to examine MMP-2 and MMP-9 expression. More specifically, the experiment was performed by the method described in Example 2. Rabbit polyclonal anti-MMP-2 antibody, goat polyclonal anti-MMP-9 antibody and mouse anti-B-actin antibody (Santa Cruz Biotechnology, Inc.) were used for detection.

[4] = system: NF-κB; assay: Gel shift assay of active NF-κB in nuclear extracts; assay type: cell-based, human
Method: The human pancreas cancer cell line MDAPanc-28 was treated with various concentrations of FUT to examine the effect on NF-κB activation. NF-κB is constantly activated in the MDAPanc-28 cell line. A gel shift assay with a κB probe was performed using the nuclear extracts from cells treated with various concentrations of FUT to detect NF-κB which was activated and translocated into the nucleus. More specifically, 10 μg of nuclear extracts were reacted with 1 μg of poly (dI-dC) (Pharmacia, Picataway, N.J.) in binding buffer (75 mM NaCl, 15 mM Tris-HCl, pH 7.5, 1.5 mM dithiothreitol, 25% glycerol and 20 mg/ml bovine serum albumin) for 30 minutes at 4° C. ^32P-labeled oligonucleotide probes (SEQ ID Nos: 1 to 4) were then added for reaction for 20 minutes at room temperature and electrophoresis was performed (4% polyacrylamide gel, 0.25×TBE; 22.5 mM Tris, 22.5 mM borate and 500 μM EDTA, pH 8.0). After drying at 80° C. for 1 hour, the gel was exposed to Kodak film (Eastman Kodak Co., Rochester, N.Y.) at −80° C. for detection. Oct-1 was used as a positive control.

[5] = system: NF-κB; assay: TNF-α-activated NF-κB after FUT treatment; assay type: cell-based, human; settings: MDAPanc-28, FUT 80 μg/ml, TNF-α 5 ng/ml
Method: After the following treatment on the human pancreas cancer cell line […]-28, plasmatic compartment was prepared and Western blot was performed to examine the expression of phosphorylated FADD, caspase 8, NF-κB and IκBα. […] The same was true for IκBα expression (FIG. 7-c).

[6] = system: jBid; assay: Western blot of Bid / jBid; assay type: cell-based, human; settings: MDAPanc-28, FUT 80 μg/ml, 0 to 24 hours
Method: The present inventors examined whether apoptosis signaling cascade is triggered with the elevation of TNFRI expression induced by FUT treatment, using caspase 8 as an indicator. Cytoplasmic fraction was prepared from the human pancreas cancer cell line […]-28 treated with various concentrations of FUT for 24 hours. Western blot was performed and subjected to the detection with anti-caspase 8 antibody (Santa Cruz Biotechnology) (FIG. 6-a). Western blot was performed to examine temporal changes in the expression of caspase 8, p-FADD, Bid and jBid under a constant concentration of FUT (80 μg/ml) at short intervals from 0 to 24 hours of treatment (FIGS. 6-b, 6-c and 6-d). Anti-FADD antibody was obtained from Santa Cruz Biotechnology and anti-Bid antibody was obtained from BD Pharmingen.

Q: How did the “concentration at which DNAs were fragmented (apoptosis induction)” value [1] turn out when `N=C(N)c1ccc2cc(OC(=O)c3ccc(N=C(N)N)cc3)ccc2c1` [FUT, 6-amidino-2-naphthyl p-guanidinobenzoate dimethanesulfonate] was run?
A: Its value is at least 40 µg/mL.

Q: What about the “level of TNFRI mRNA expression” value ([2]; MDAPanc-28, Northern blot) of the same molecule?
A: The value was “increased in a FUT concentration-dependent manner”.

Q: And the “TNFRI expression on the cell surface” value ([2]; MDAPanc-28, Western blot)?
A: Its value is “increased TNFRI expression on the cell surface”.

Q: What about the MMP-9 expression [3] of the same molecule?
A: The MMP-9 expression was “inhibited by FUT in a concentration-dependent manner”.

Q: What about the “NF-κB activation over time” value ([4]; MDAPanc-28, time after addition of FUT up to 48 hours) of the same molecule?
A: The value was “inhibited overtime up to 24 hours after addition of FUT and then was restored to a steady-state level at 48 hours”.

Q: What about the NF-κB activation ([4]; MDAPanc-28, various concentrations of FUT) of the same molecule?
A: Its NF-κB activation is “inhibited NF-κB activation in a concentration-dependent manner”.

Q: And the “TNF-α-activated NF-κB” value [5]?
A: Its value is “inhibits TNF-α-activated NF-κB”.

Q: What about the “expression of JBid, the degradation product of Bid” value [6] of the same molecule?
A: Its value is “overtime increase in the expression of JBid”.
